This assay has as its target T1, human TLR7 (Homo sapiens, UniProt Q9NYK1).
T1 construct: host or cells: HEK293 (HEK-Blue hTLR7)
T1 sequence (Q9NYK1 27-1049): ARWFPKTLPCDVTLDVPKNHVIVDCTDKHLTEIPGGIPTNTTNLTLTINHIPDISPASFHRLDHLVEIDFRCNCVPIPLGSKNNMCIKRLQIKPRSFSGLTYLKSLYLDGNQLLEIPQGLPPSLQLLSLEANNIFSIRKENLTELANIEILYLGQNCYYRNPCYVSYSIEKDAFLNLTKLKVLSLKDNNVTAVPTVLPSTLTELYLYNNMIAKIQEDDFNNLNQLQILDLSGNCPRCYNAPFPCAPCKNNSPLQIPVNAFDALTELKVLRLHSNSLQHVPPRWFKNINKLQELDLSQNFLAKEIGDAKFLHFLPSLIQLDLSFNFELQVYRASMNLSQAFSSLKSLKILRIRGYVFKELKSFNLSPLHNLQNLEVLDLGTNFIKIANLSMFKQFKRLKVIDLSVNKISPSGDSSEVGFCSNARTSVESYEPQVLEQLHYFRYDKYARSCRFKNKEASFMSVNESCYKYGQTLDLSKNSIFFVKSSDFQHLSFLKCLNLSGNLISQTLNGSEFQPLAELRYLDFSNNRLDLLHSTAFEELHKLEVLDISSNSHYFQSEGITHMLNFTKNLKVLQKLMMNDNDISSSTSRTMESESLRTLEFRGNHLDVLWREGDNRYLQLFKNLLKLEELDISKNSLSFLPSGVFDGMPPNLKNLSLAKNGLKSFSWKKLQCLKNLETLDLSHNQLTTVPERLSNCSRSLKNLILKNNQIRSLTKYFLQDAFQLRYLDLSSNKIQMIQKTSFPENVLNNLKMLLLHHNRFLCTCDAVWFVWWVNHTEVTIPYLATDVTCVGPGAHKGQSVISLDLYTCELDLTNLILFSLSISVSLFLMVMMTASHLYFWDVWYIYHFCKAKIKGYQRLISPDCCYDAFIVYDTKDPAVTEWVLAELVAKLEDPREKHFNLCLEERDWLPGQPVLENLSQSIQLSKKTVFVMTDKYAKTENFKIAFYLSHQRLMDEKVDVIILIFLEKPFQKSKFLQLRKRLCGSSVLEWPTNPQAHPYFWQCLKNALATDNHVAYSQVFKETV
As to the kind of experiment: HEK293-Blue-hTLR-7 cells assay (SEAP reporter, R848 stimulation). The class given is cell-based. As to conditions: HEK293-Blue-hTLR7 cells, R848, 20 hrs; read-out: HEK/hTLR7 IC50. How it is done:
The following tests were carried out in order to determine the activity of the compounds of formula (I) and (Ia) in HEK293-Blue-hTLR-7/8/9 cells assay.
A stable HEK293-Blue-hTLR-7 cell line was purchased from InvivoGen (Cat. #: hkb-htlr7, San Diego, California, USA). These cells were originally designed for studying the stimulation of human TLR7 by monitoring the activation of NF-κB. A SEAP (secreted embryonic alkaline phosphatase) reporter gene was placed under the control of the IFN-β minimal promoter fused to five NF-κB and AP-1-binding sites. The SEAP was induced by activating NF-κB and AP-1 via stimulating HEK-Blue hTLR7 cells with TLR7 ligands. Therefore the reporter expression w % as declined by TLR7 antagonist under the stimulation of a ligand, such as R848 (Resiquimod), for incubation of 20 hrs. The cell culture supernatant SEAP reporter activity was determined using QUANTI-Blue™ kit (Cat. #: rep-qb1, Invivogen, San Diego, Ca, USA) at a wavelength of 640 nm, a detection medium that turns purple or blue in the presence of alkaline phosphatase.
HEK293-Blue-hTLR7 cells were incubated at a density of 250,000˜450,000 cells/mL in a volume of 170 μL in a 96-well plate in Dulbecco's Modified Eagle's medium (DMEM) containing 4.5 g/L glucose, 50 U/mL penicillin, […], […] Normocin, 2 mM L-glutamine, 10% (v/v) heat-inactivated fetal bovine serum with addition of 20 μL test compound in a serial dilution in the presence of final DMSO at 1% and 10 μL of 20 uM R848 in above DMEM, perform incubation under 37° C. in a C02 incubator for 20 hrs. Then 20 μL of the supernatant from each well was incubated with 180 μL Quanti-blue substrate solution at 37° C. for 2 hrs and the absorbance was read at 620˜655 nm using a spectrophotometer. The signaling pathway that TLR7 activation leads to downstream NF-κB activation has been widely accepted, and therefore similar reporter assay was modified for evaluating TLR7 antagonist.
On to `C[C@H]1CN(c2ccnc3c2cnn3C)Cc2ccc(OC[C@@H]3CNCCN3)cc21` [Example 19, (4R)-4-methyl-2-(1-methylpyrazolo[3,4-b]pyridin-4-yl)-6-[[(2S)-piperazin-2-yl]methoxy]-3,4-dihydro-1H-isoquinoline], for which the IC50 was found to be 8 nM.
With `CO[C@@H]1CN(c2ccc3c(c2)[C@@H](C)CN(c2ccnc4c2cnn4C)C3)C[C@H]1N` [Example 20, (3R,4R)-4-methoxy-1-[(4R)-4-methyl-2-(1-methylpyrazolo[3,4-b]pyridin-4-yl)-3,4-dihydro-1H-isoquinolin-6-yl]pyrrolidin-3-amine], the IC50 was found to be 3 nM.
Turning to `C[C@H]1CN(c2ccnc3c2cnn3C)Cc2ccc(N3CC4(CNCCO4)C3)cc21` [Example 21, 2-[(4R)-4-methyl-2-(1-methylpyrazolo[3,4-b]pyridin-4-yl)-3,4-dihydro-1H-isoquinolin-6-yl]-5-oxa-2,8-diazaspiro[3.5]nonane], the IC50 turned out to be 7 nM.
In the case of `CCn1ncc2c(N3Cc4ccc(N5CCNCC5)cc4[C@@H](C)C3)ccnc21` [Example 22, (4R)-2-(1-ethylpyrazolo[3,4-b]pyridin-4-yl)-4-methyl-6-piperazin-1-yl-3,4-dihydro-1H-isoquinoline], the IC50 was 10 nM.
As to `CO[C@@H]1CN(c2ccc3c(c2)[C@@H](C)CN(c2cc(C)nc4c2cnn4C)C3)C[C@H]1N` [Example 23, (3R,4R)-4-methoxy-1-[(4R)-2-(1,6-dimethylpyrazolo[3,4-b]pyridin-4-yl)-4-methyl-3,4-dihydro-1H-isoquinolin-6-yl]pyrrolidin-3-amine], the IC50 was 5 nM.
`C[C@H]1CN(c2ccnc3c2cnn3C)Cc2ccc(N3C[C@H]4CNCCN4C3=O)cc21` [Example 24, (8aR)-2-[(4R)-4-methyl-2-(1-methylpyrazolo[3,4-b]pyridin-4-yl)-3,4-dihydro-1H-isoquinolin-6-yl]-1,5,6,7,8,8a-hexahydroimidazo[1,5-a]pyrazin-3-one]: the IC50 stood at 10 nM.
To `C[C@H]1CN(c2ccnc3c2cnn3C)Cc2ccc(N3C[C@@H]4CNCCN4C3=O)cc21` [Example 25, (8aS)-2-[(4R)-4-methyl-2-(1-methylpyrazolo[3,4-b]pyridin-4-yl)-3,4-dihydro-1H-isoquinolin-6-yl]-1,5,6,7,8,8a-hexahydroimidazo[1,5-a]pyrazin-3-one] belongs 15 nM; to `C[C@H]1CN(c2ccnc3c2cnn3C)Cc2ccc(N3CC4(CCNCC4)OC3=O)cc21` [Example 26, 3-[(4R)-4-methyl-2-(1-methylpyrazolo[3,4-b]pyridin-4-yl)-3,4-dihydro-1H-isoquinolin-6-yl]-1-oxa-3,8-diazaspiro[4.5]decan-2-one], 7 nM.
Consider `C[C@H]1CN(c2ccnc3c2cnn3C)Cc2ccc(N3C4CCC3CNC4)cc21` [Example 27, (4R)-6-(3,8-diazabicyclo[3.2.1]octan-8-yl)-4-methyl-2-(1-methylpyrazolo[3,4-b]pyridin-4-yl)-3,4-dihydro-1H-isoquinoline], for which the IC50 was determined as 4 nM.
Consider `C[C@H]1CN(c2ccnc3c2cnn3C)Cc2ccc(N3CCC(N4CC(N)C4)CC3)cc21` [Example 28, 1-[1-[(4R)-4-methyl-2-(1-methylpyrazolo[3,4-b]pyridin-4-yl)-3,4-dihydro-1H-isoquinolin-6-yl]-4-piperidyl]azetidin-3-amine], for which the IC50 was determined as 4 nM.
Regarding `C[C@H]1CN(c2ccnc3c2cnn3C)Cc2ccc(N3CCC(N4CC[C@@H](N)[C@H](O)C4)CC3)cc21` [Example 29, trans-4-amino-1-[1-[(4R)-4-methyl-2-(1-methylpyrazolo[3,4-b]pyridin-4-yl)-3,4-dihydro-1H-isoquinolin-6-yl]-4-piperidyl]piperidin-3-ol], the IC50 is 9 nM.
`Cc1cc(N2Cc3ccc(OC[C@H]4CNCCN4)cc3[C@@H](C)C2)c2cnn(C)c2n1` [Example 30, (4R)-2-(1,6-dimethylpyrazolo[3,4-b]pyridin-4-yl)-4-methyl-6-[[(2R)-piperazin-2-yl]methoxy]-3,4-dihydro-1H-isoquinoline]: the IC50 was 37 nM.
As for `Cc1cc(N2Cc3ccc(OC[C@@H]4CNCCN4)cc3[C@@H](C)C2)c2cnn(C)c2n1` [Example 31, (4R)-2-(1,6-dimethylpyrazolo[3,4-b]pyridin-4-yl)-4-methyl-6-[[(2S)-piperazin-2-yl]methoxy]-3,4-dihydro-1H-isoquinoline], the IC50 was 24 nM.
For the compound `C[C@H]1CN(c2ccnc3c2cnn3C)Cc2ccc(N3CCN(S(=O)(=O)C4CCNC4)CC3)cc21` (stereo partly drawn) [Example 33, (4R)-4-methyl-2-(1-methylpyrazolo[3,4-b]pyridin-4-yl)-6-(4-pyrrolidin-3-ylsulfonylpiperazin-1-yl)-3,4-dihydro-1H-isoquinoline], the IC50 is 6 nM.
For `C[C@H]1CN(c2ccnc3c2cnn3C)Cc2ccc(N3CC4(CNC4)CC3=O)cc21` [Example 34, 6-[(4R)-4-methyl-2-(1-methylpyrazolo[3,4-b]pyridin-4-yl)-3,4-dihydro-1H-isoquinolin-6-yl]-2,6-diazaspiro[3.4]octan-7-one], the IC50 was 26 nM.
Regarding `C[C@H]1CN(c2ccnc3c2cnn3C)Cc2ccc(N3CC4(CCNC4)OC3=O)cc21` (stereo partly drawn) [Example 35, 3-[(4R)-4-methyl-2-(1-methylpyrazolo[3,4-b]pyridin-4-yl)-3,4-dihydro-1H-isoquinolin-6-yl]-1-oxa-3,7-diazaspiro[4.4]nonan-2-one], the IC50 came out at 24 nM.
As to `C[C@H]1CN(c2ccnc3c2cnn3C)Cc2ccc(N3CCN(Cc4cn(C)cn4)CC3)cc21` [Example 37, (4R)-4-methyl-6-[4-[(1-methylimidazol-4-yl)methyl]piperazin-1-yl]-2-(1-methylpyrazolo[3,4-b]pyridin-4-yl)-3,4-dihydro-1H-isoquinoline], the IC50 stood at 14 nM.
In the case of `C[C@H]1CN(c2ccnc3c2cnn3C)Cc2ccc(N3CCN(CCN(C)C)CC3)cc21` [Example 38, N,N-dimethyl-2-[4-[(4R)-4-methyl-2-(1-methylpyrazolo[3,4-b]pyridin-4-yl)-3,4-dihydro-1H-isoquinolin-6-yl]piperazin-1-yl]ethanamine], the IC50 worked out at 3 nM.
To `C[C@H]1CN(c2ccnc3c2cnn3C)Cc2ccc(OCCN3CCNCC3)cc21` [Example 40, (4R)-4-methyl-2-(1-methylpyrazolo[3,4-b]pyridin-4-yl)-6-(2-piperazin-1-ylethoxy)-3,4-dihydro-1H-isoquinoline] belongs 8 nM.
Consider `C[C@H]1CN(c2ccnc3c2cnn3C)Cc2ccc(OC3CN(C4CCNCC4)C3)cc21` [Example 41, (4R)-4-methyl-2-(1-methylpyrazolo[3,4-b]pyridin-4-yl)-6-[1-(4-piperidyl)azetidin-3-yl]oxy-3,4-dihydro-1H-isoquinoline], for which the IC50 came to 7 nM.
Consider `C[C@H]1CN(c2ccnc3c2cnn3C)Cc2ccc(O[C@@H]3C[C@H]4CNCCN4C3)cc21` [Example 42, (4R)-4-methyl-2-(1-methylpyrazolo[3,4-b]pyridin-4-yl)-6-[[(7R,8aS)-1,2,3,4,6,7,8,8a-octahydropyrrolo[1,2-a]pyrazin-7-yl]oxy]-3,4-dihydro-1H-isoquinoline], for which the IC50 turned out to be 3 nM.

The record behind these values is patent publication US20240317735A1, “HYDROISOQUINOLINE OR HYDRONAPHTHYRIDINE COMPOUNDS FOR THE TREATMENT OF AUTOIMMUNE DISEASE” (Hoffmann-La Roche Inc., priority 2020, published 2024).
